{"source": "patent US11491158B2", "about": "“N-(substituted-phenyl)-sulfonamide derivatives as kinase inhibitors” (Nerviano Medical Sciences S.R.L., priority 2016, dated 2022)", "target": "PERK recombinant enzyme (cytoplasmic domain corresponding to residues 540-1115) (Homo sapiens (Human), UniProt Q9NZJ5)", "sequence (Q9NZJ5 540-1115)": "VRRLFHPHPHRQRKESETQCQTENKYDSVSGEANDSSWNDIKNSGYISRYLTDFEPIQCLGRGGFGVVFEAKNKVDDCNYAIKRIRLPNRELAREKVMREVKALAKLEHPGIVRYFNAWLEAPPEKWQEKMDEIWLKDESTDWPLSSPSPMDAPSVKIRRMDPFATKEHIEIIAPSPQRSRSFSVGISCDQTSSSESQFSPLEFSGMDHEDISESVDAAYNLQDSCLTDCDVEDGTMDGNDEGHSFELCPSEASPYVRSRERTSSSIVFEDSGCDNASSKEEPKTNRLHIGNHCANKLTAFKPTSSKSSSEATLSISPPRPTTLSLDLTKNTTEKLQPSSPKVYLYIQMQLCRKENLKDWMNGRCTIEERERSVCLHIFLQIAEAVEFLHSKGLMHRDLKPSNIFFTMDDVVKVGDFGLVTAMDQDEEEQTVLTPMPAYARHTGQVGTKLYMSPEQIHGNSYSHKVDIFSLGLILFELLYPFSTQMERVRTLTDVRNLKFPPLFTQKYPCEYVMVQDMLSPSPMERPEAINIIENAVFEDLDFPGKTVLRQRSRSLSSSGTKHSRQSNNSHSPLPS", "test": "PERK enzyme assay, Method 1: ADP-Glo Kinase Assay (quantification of ADP formed)", "type": "biochemical", "conditions": "52 microM ATP, 8 nM PERK, 300 microM elF2alpha peptide substrate, 60 minutes", "protocol": "The biochemical activity of compounds was determined by incubation with PERK recombinant enzyme (cytoplasmic domain corresponding to residues 540-1115) and elF2alpha peptide substrate (Aminoacid sequence: LLSELSRRRIRSINK—SEQ ID Nr: 1; purchased from American Peptide Company, product #341923). This was followed by:\nMethod 1: Quantification of the ADP Formed from the Kinase Reaction by ADP-Glo™ Kinase Assay (Promega Cat. 9102). Utra Pure ATP was Included into ADP-Glo™ Kinase Assay Kit. […]\nAfter 60 minutes, an equal volume (15 microL) of ADP-Glo™ Reagent was added to each well to terminate the kinase reaction and deplete the remaining ATP. After 40 minutes, 30 microL of Kinase Detection Reagent is added, which simultaneously converts ADP to ATP and allows the newly synthesized ATP to be measured using a coupled luciferase/luciferin reaction. After further 40 minutes luminescence was read by ViewLux Instrument (Perkin Elmer). The data are analyzed by GraphPad Prism software which provides sigmoidal fittings of the curves for IC50 determination using a 4 parameter logistic equation: y=bottom+(top−bottom)/(1+10^((log IC50−x)*slope)) where x is the logarithm of the inhibitor concentration, y is the response; y starts at bottom and goes to top with a sigmoid shape. Method 2: Quantification of the Phosphorylated Product Formed from the Kinase Reaction in Presence of ATP (Aldrich, Cat #A2620-9).", "data": [{"smiles": "COc1ccc(S(=O)(=O)Nc2cccc(-c3csc4ccnc(N)c34)c2F)cc1C", "note": "[Cmpd 60, N-[3-(4-Amino-thieno[3,2-c]pyridin-3-yl)-2-fluoro-phenyl]-4-methoxy-3-methyl-benzenesulfonamide]", "values": [{"measurement": "pIC50", "value": "C (pIC50 < 6.8)"}]}]}
